This is an account of results in patent EP0101944A1, “Immunomodulators containing as the active ingredient alpha-benzyl malic acid” (MICROBIAL CHEMISTRY RESEARCH FOUNDATION, priority 1982, dated 1984).

The test system of data set [1] is cell-mediated immunity. In words: Delayed-type hypersensitivity (D.T.H.) to sheep red blood cells, foot pad swelling in normal mice. The data set is classed as in vivo, CDF1 mice. The settings on record: single dose; for Thickness of the foot pad: SRBC-sensitized female CDF1 mice, measured 24 h after challenge, control 8.6 ± 1.29; for % on the control's value: foot pad thickness, control = 100 %. On the procedure: The action of &-benzyl malic acid on cell-mediated immunity was investigated using as its index the degree of delayed-type hypersensitivity (hereinafter referred to as D.T.H.) obtained by inoculating the foot pads of mice with sheep red blood cells (hereinafter referred to as SRBC) used as the antigen (Reference: J.Exp.Med. 139, 1529-1539, 1974).
A suspension of […] SRBCs in 0.05 ml of physiological saline solution was inoculated subcutaneously to the foot pad of one of the hind legs of CDF1 mice (female, 8 weeks old). Simultaneously, an aqueous solution containing 5, 0.5, 0.05 or 0.005 mg/kg of α-benzyl malic acid was administered intraperitoneally in a single dose. Four days after administration, a suspension of 10^8 SRBCs in 0.05 ml of physiological saline solution was subcutaneously administered to the foot pad of the other hind leg to induce secondary immune response. Twenty-four hours later, swelling on the foot pad (increased thickness of the foot pad) was measured with a calipers. The thickness of the foot pad in control animals, which had been sensitized with SRBCs and intraperitoneally administered physiological saline solution without having received the test compound, was evaluated to be 100 %. The thickness of the foot pad in the test animals that had been treated in the aforementioned way was compared with that in the control animals, thereby judging the cell-mediated immunity potentiating effect of the test compound.

Data set [2] in a line: Acute toxicity test in mice. In kind it is in vivo. As to conditions: i.v. dose of 500 mg/kg. From the text:
The present compound is therefore believed to be a safe substance.

The test system of data set [3] is cell-mediated immunity. Put plainly: Picryl chloride ear swelling in cancer-inflicted (Ascites Sarcoma 180) mice. In kind it is in vivo, CDF1 mice. The settings on record: for Increase in ear thickness: Sarcoma 180-bearing female CDF1 mice, picryl chloride, control 4.11 ± 1.11; for Rate to the control value: increase in ear thickness T/C, control = 100.0. From the text:
(Effect on cell-mediated immunity in cancer-inflicted mice; picryl chloride was used as the antigen)
10^6 cells of Ascites Sarcoma 180 were intraperitoneally transplanted to groups of 12-week-old female CDF1 mice (6 mice/group). The day of transplantation was designated as Day 0. On Day 1, a 6 % solution of picryl chloride in ethanol was applied to a shaven skin (25 mm x 15 mm) of the abdomen with the use of a cut absorbent cotton (20 mm x 20 mm x 2 mm) impregnated with the solution to thereby sensitize the mice. On Day 8, both ears were measured for thickness with a dial gauge, to determine the baseline value (a).
Then, both ears were sensitized with a 20 mm x 4 mm x 1 mm cut absorbent cotton impregnated with a 1 % solution of picryl chloride in olive oil. On Day 9, both swollen ears were measured for their thickness with a dial gauge to obtain a value (b). The baseline value (a) was subtracted from the value (b) to determine the increase in ear thickness (b - a) for the control group (C).
On the other hand, 5.0, 0.5, 0.05 or 0.005 mg/kg of the test compound dissolved in physiological saline solution was orally administered once daily for 6 consecutive days between the day and 8 days after inoculation of Sarcoma 180. The mice were sensitized with picryl chloride in the same way as in the control group, and the thickness of the ears was similarly measured to determine the increase in ear thickness (b' - a') for the treatment group (T).
The rate of increase in ear thickness for the treatment group to that for the control group was calculated from the following equation: [formula] to determine the cell-mediated immunity modulating activity of the present compound.

The mark [4] stands for this setting: 0.005 mg/kg orally once daily for 6 consecutive days.
Setting [5] is: 0.05 mg/kg orally once daily for 6 consecutive days.
The mark [6] stands for this setting: 0.5 mg/kg orally once daily for 6 consecutive days.
Where [7] appears, read: 5.0 mg/kg orally once daily for 6 consecutive days.

Consider `CC(C)C[C@H](NC(=O)[C@@H](O)[C@H](N)Cc1ccccc1)C(=O)O` [Bestatin, [(2S,3R)-5-amino-2-hydroxy-4-phenyl-(S)-leucine], reference compound], for which, in data set [1] (0.5 mg/kg intraperitoneally), the “Thickness of the foot pad” value is 12.6 ± 1.12 x 0.1 mm and the “% on the control's value” came to 147%.
`O=C(O)CC(O)(Cc1ccccc1)C(=O)O` (stereo not drawn) [α-benzyl malic acid]: the “deaths in acute toxicity tests” value in data set [2] is reported as “no deaths”. In addition, the “Thickness of the foot pad” value is reported as 11.8 ± 1.15 x 0.1 mm in data set [1] (0.005 mg/kg intraperitoneally), 13.4 ± 1.61 x 0.1 mm in data set [1] (0.05 mg/kg intraperitoneally), 14.4 ± 1.52 x 0.1 mm in data set [1] (0.5 mg/kg intraperitoneally) and 12.8 ± 1.42 x 0.1 mm in data set [1] (5 mg/kg intraperitoneally). The “% on the control's value” is reported as 137% in data set [1] (0.005 mg/kg intraperitoneally), 156% in data set [1] (0.05 mg/kg intraperitoneally), 167% in data set [1] (0.5 mg/kg intraperitoneally) and 149% in data set [1] (5 mg/kg intraperitoneally). The “Increase in ear thickness” value was 5.18 ± 0.67 x 0.01 mm in data set [3] (setting [4]); 5.29 ± 0.33 x 0.01 mm in data set [3] (setting [5]); 5.29 + 0.33 x 0.01 mm in data set [3] (0.05 mg/kg orally once daily for 6 consecutive days, listed as the present compound); 5.08 ± 0.56 x 0.01 mm in data set [3] (setting [6]); 4.71 ± 0.95 x 0.01 mm in data set [3] (setting [7]). Further, the “Rate to the control value” in data set [3] (setting [4]) turned out to be 126.0%; in data set [3] (setting [5]), 128.7%; in data set [3] (setting [6]), 123.6%; in data set [3] (setting [7]), 114.6%.
